The target in test [1] is Pim1 kinase (Homo sapiens (Human), UniProt P11309). Nature of the test: Pim1 ATP depletion assay. As to conditions: 20 μM ATP, 40 μM BAD peptide, 2.5 nM PIM1. Format: biochemical. The procedure:
(§1) The activity of PIM1 is measured using a luciferase-luciferin based ATP detection reagent to quantify ATP depletion resulting from kinase-catalyzed phosphoryl transfer to a peptide substrate. Compounds to be tested are dissolved in 100% DMSO and directly distributed into white 384-well plates at 0.5 μl per well. […] After 15 minutes, 10 μl of 40 μM ATP in assay buffer is added. Final assay concentrations are 2.5 nM PIM1, 20 μM ATP, 40 μM BAD peptide and 2.5% DMSO. The reaction is performed until approximately 50% of the ATP is depleted, then stopped with the addition of 20 μl KinaseGlo Plus (Promega Corporation) solution. The stopped reaction is incubated for 10 minutes and the remaining ATP detected via luminescence on the Victor2 (Perkin Elmer).

For test [2], the target named is Pim2 kinase (Homo sapiens (Human), UniProt Q9P1W9). Briefly: Pim2 ATP depletion assay. Format: biochemical. To be noted: 4 μM ATP, 10 μM BAD peptide, 5 nM PIM2. The procedure:
as §1, with “of PIM2” for “of PIM1”, “0.5 piper” for “0.5 μl per”, “of 8” for “of 40”, “are 5” for “are 2.5”, “nM PIM2, 4” for “nM PIM1, 20”, “ATP, 10” for “ATP, 40”

In test [3] the target is Pim3 kinase (Homo sapiens (Human), UniProt Q86V86). Nature of the test: Pim3 ATP depletion assay. To be noted: 40 μM ATP, 100 μM BAD peptide. Format: biochemical. The procedure:
The activity of PIM3 is measured using a luciferase-luciferin based ATP detection reagent to quantify ATP depletion resulting from kinase-catalyzed phosphoryl transfer to a peptide substrate. Compounds to be tested are dissolved in 100% DMSO and directly distributed into white 384-well plates at 0.5 piper well. […] After 15 minutes, 10 μl of 80 μM ATP in assay buffer is added. Final assay concentrations are 5 nM PIM1, 40 μM ATP, 100 μM BAD peptide and 2.5% DMSO. The reaction is performed until approximately 50% of the ATP is depleted, then stopped by the addition of 20 μl KinaseGlo Plus (Promega Corporation) solution. The stopped reaction is incubated for 10 minutes and the remaining ATP detected via luminescence on the Victor2 (Perkin Elmer).

Test [4] relates to KMS11 (human myeloma cell line). Briefly: Cell Proliferation Assay. To be noted: KMS-11, 72 h, KMS11 cells, 3 days, Cell Titer-Glow. In kind it is cell-based. The procedure:
KMS11 (human myeloma cell line), were cultured in IMDM supplemented with 10% FBS, sodium pyruvate and antibiotics. Cells were plated in the same medium at a density of 2000 cells per well into 96 well tissue culture plates, with outside wells vacant, on the day of assay. MM1.s (human myeloma cell line), were cultured in RPMI1640 supplemented with 10% FBS, sodium pyruvate and antibiotics. Cells were plated in the same medium at a density of 5000 cells per well into 96 well tissue culture plates, with outside wells vacant, on the day of assay.
Test compounds supplied in DMSO were diluted into DMSO at 500 times the desired final concentrations before dilution into culture media to 2 times final concentrations. Equal volumes of 2× compounds were added to the cells in 96 well plates and incubated at 37° C. for 3 days.
After 3 days plates were equilibrated to room temperature and equal volume of Cell Titer-Glow Reagent (Promega) was added to the culture wells. The plates were agitated briefly and luminescent signal was measured with luminometer.
Using the procedures for Cell Proliferation Assay described above, the EC50 concentration of compounds of the previous examples were determined in KMS11 cells as shown in the following table.
In general terms: In ATP-based viability assays light output follows the ATP content of the culture.

IC50 and EC50 data for 21 molecules are collected here from patent US8829193B2, “PIM kinase inhibitors and methods of their use” (Novartis AG, priority 2008, dated 2014).

Chain of Pim1 kinase (P11309 whole entry): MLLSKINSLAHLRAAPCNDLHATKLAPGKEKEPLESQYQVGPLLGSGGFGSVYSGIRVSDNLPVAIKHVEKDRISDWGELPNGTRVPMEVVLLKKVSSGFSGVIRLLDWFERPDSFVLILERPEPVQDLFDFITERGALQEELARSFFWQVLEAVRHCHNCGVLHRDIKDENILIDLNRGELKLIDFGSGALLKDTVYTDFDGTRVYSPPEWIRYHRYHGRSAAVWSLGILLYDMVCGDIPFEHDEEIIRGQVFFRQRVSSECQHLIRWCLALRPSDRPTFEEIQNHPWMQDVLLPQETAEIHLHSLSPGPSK
Chain of Pim2 kinase (Q9P1W9 whole entry): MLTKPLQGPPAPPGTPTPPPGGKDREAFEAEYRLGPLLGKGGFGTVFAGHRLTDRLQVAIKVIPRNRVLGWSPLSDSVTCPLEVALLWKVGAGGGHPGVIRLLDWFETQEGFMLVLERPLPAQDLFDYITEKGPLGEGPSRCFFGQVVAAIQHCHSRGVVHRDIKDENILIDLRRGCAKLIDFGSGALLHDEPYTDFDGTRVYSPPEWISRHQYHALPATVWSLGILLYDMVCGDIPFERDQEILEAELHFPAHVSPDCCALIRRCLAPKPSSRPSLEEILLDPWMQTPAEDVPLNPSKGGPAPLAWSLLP

Consider `Nc1sc(-c2c(F)cccc2F)nc1C(=O)Nc1cnccc1[C@@H]1CC[C@H](O)[C@H](N)C1` (stereo in doubt) [Example 38, 5-amino-N-(4-(3-amino-4-hydroxycyclohexyl)pyridin-3-yl)-2-(2,6-difluorophenyl)thiazole-4-carboxamide], for which the IC50 in test [1] is 1 nM; in test [2], 4 nM; in test [3], 3 nM. Moreover, the EC50 in test [4] is 1890 nM.

`N[C@H]1CCCN(c2ccncc2NC(=O)c2csc(-c3c(F)cccc3F)n2)C1` [Example 1, (S)-N-(4-(3-aminopiperidin-1-yl)pyridin-3-yl)-2-(2,6-difluorophenyl)thiazole-4-carboxamide]: in test [4], the EC50 stood at 1170 nM.

Take `N[C@@H]1CN(c2ccncc2NC(=O)c2csc(-c3c(F)cccc3F)n2)CC[C@H]1O` [Example 2, N-(4-((3R,4R)-3-amino-4-hydroxypiperidin-1-yl)pyridin-3-yl)-2-(2,6-difluorophenyl)thiazole-4-carboxamide]: the IC50 in test [1] was found to be 2 nM; in test [2], 11 nM; in test [3], 4 nM. In test [4], the EC50 was 1570 nM.

As for `CC1CC(N)CN(c2ccncc2NC(=O)c2csc(-c3c(F)cccc3F)n2)C1` (stereo not drawn) [Example 14, N-(4-(3-amino-5-methylpiperidin-1-yl)pyridin-3-yl)-2-(2,6-difluorophenyl)thiazole-4-carboxamide], the response in test [4] was half-maximal at 830 nM (EC50).

On to `C[C@@H]1C[C@H](N)CN(c2ccncc2NC(=O)c2csc(-c3c(F)cccc3F)n2)C1` [Example 28, N-(4-((3S,5R)-3-amino-5-methylpiperidin-1-yl)pyridin-3-yl)-2-(2,6-difluoropheenyl)thiazole-4-carboxamide], for which, in test [4], the EC50 worked out at 400 nM.

In test [4], `Nc1sc(-c2c(F)cccc2F)nc1C(=O)Nc1cnccc1N1CCC[C@H](N)C1` [Example 29, (S)-5-amino-N-(4-(3-aminopiperidin-1-yl)pyridin-3-yl)-2-(2,6-difluorophenyl)thiazole-4-carboxamide] came in with a concentration giving a half-maximal response (EC50) of 40 nM. This EC50 lies about 10-fold lower than the previous one.

Regarding `Nc1sc(-c2c(F)cccc2F)nc1C(=O)Nc1cnccc1N1CCC(F)CC1` [Example 30, 5-amino-2-(2,6-difluorophenyl)-N-(4-(4-fluoropiperidin-1-yl)pyridin-3-yl)thiazole-4-carboxamide], the IC50 in test [1] came to 1 nM; in test [2], 55 nM; in test [3], 3 nM.

As to `C[C@@H]1C[C@H](O)C[C@H](c2ccncc2NC(=O)c2csc(-c3c(F)cccc3F)n2)C1` [Example 31, 2-(2,6-difluorophenyl)-N-(4-((1R,3S,5S)-3-hydroxy-5-methylcyclohexyl)pyridin-3-yl)thiazole-4-carboxamide], the half-inhibitory concentration (IC50) was found to be 2 nM in test [1], 90 nM in test [2] and 8 nM in test [3].

In the case of `C[C@@H]1C[C@H](O)C[C@H](c2ccncc2NC(=O)c2nc(-c3c(F)cccc3F)sc2N)C1` [Example 32, 5-amino-2-(2,6-difluorophenyl)-N-(4-((1R,3S,5S)-3-hydroxy-5-methylcyclohexyl)pyridin-3-yl)thiazole-4-carboxamide], the IC50 in test [1] was determined as 1 nM; in test [2], 5 nM; in test [3], 4 nM.

As to `Nc1sc(-c2c(F)cccc2F)nc1C(=O)Nc1cnccc1[C@@H]1CCC[C@H](N)C1` [Example 33, 5-amino-N-(4-((1R,3S)-3-aminocyclohexyl)pyridin-3-yl)-2-(2,6-difluorophenyl)thiazole-4-carboxamide], in test [1], 1 nM corresponded to half-maximal inhibition (IC50). In addition, it took 430 nM to reach a half-maximal effect in test [4] (EC50).

Consider `N[C@H]1CCC[C@@H](c2ccncc2NC(=O)c2csc(-c3c(F)cccc3F)n2)C1` [Example 34, N-(4-((1R,3S)-3-aminocyclohexyl)pyridin-3-yl)-2-(2,6-difluorophenyl)thiazole-4-carboxamide], for which the EC50 in test [4] is 5020 nM.

Consider `C[C@@H]1CN(c2ccncc2NC(=O)c2csc(-c3c(F)cccc3F)n2)C[C@@H](N)[C@H]1O` [Example 35, N-(4-((3R,4S,5R)-3-amino-4-hydroxy-5-methylpiperidin-1-yl)pyridin-3-yl)-2-(2,6-difluorophenyl)thiazole-4-carboxamide], for which the results for the IC50 in test [1], in test [2] and in test [3] were 9 nM, 125 nM and 9 nM, respectively.

For `C[C@@H]1C[C@H](N)C[C@H](c2ccncc2NC(=O)c2csc(C3CCCCC3)n2)C1` [Example 40, N-(4-((1R,3S,5S)-3-amino-5-methylcyclohexyl)pyridin-3-yl)-2-cyclohexylthiazole-4-carboxamide], the concentration for half-maximal inhibition (IC50) amounted to 41 nM in test [1], 97 nM in test [2] and 109 nM in test [3].

Turning to `C[C@H]1C[C@@H](c2ccncc2NC(=O)c2csc(C3CCCCC3)n2)C[C@@H](N)[C@@H]1O` [Example 42, N-(4-((1R,3R,4R,5S)-3-amino-4-hydroxy-5-methylcyclohexyl)pyridin-3-yl)-2-cyclohexylthiazole-4-carboxamide], the results for the IC50 in test [1], in test [2] and in test [3] were 146 nM, 250 nM and 215 nM, respectively.

`C[C@H]1C[C@@H](c2ccncc2NC(=O)c2csc(-c3c(F)cccc3F)n2)C[C@@H](N)[C@H]1O` [Example 43, N-(4-((1R,3R,4S,5S)-3-amino-4-hydroxy-5-methylcyclohexyl)pyridin-3-yl)-2-(2,6-difluorophenyl)thiazole-4-carboxamide (and enantiomer)]: the IC50 in test [1] came to 5 nM; in test [2], 46 nM; in test [3], 15 nM.

For the molecule `C[C@@H]1C[C@H](N)C[C@H](c2ccncc2NC(=O)c2csc(-c3c(F)cccc3F)n2)C1` [Example 45, N-(4-((1R,3S,5S)-3-amino-5-methylcyclohexyl)pyridin-3-yl)-2-(2,6-difluorophenyl)thhiazole-4-carboxamide], the values for the IC50 in test [1] and in test [3] were 1 nM and 3 nM, respectively. Besides, the EC50 in test [4] was 920 nM.

Turning to `CC1(C)C[C@H](N)C[C@H](c2ccncc2NC(=O)c2csc(-c3c(F)cccc3F)n2)C1` [Example 46, N-(4-((1R,5R)-5-amino-3,3-dimethylcyclohexyl)pyridin-3-yl)-2-(2,6-difluorophenyl)thiazole-4-carboxamide], the IC50 in test [1] was determined as 1 nM; in test [2], 16 nM; in test [3], 3 nM.

Take `N[C@H]1CCCN(c2ccncc2NC(=O)c2csc(-c3ccccc3)n2)C1` [Example 48, (S)-N-(4-(3-aminopiperidin-1-yl)pyridin-3-yl)-2-phenylthiazole-4-carboxamide]: the IC50 was determined as 2 nM in test [1], 17.7 nM in test [2] and 2.3 nM in test [3].

`N[C@H]1CCCN(c2ccncc2NC(=O)c2csc(-c3ccccc3F)n2)C1` [Example 49, (S)-N-(4-(3-aminopiperidin-1-yl)pyridin-3-yl)-2-(2-fluorophenyl)thiazole-4-carboxamide]: the IC50 was determined as 1.9 nM in test [1], 9.9 nM in test [2] and 4.2 nM in test [3].

Turning to `CC(C)NC(=O)c1ccc(F)c(-c2nc(C(=O)Nc3cnccc3N3CCC[C@H](N)C3)cs2)c1` [Example 50, (S)-N-(4-(3-aminopiperidin-1-yl)pyridin-3-yl)-2-(2-fluoro-5-(isopropylcarbamoyl)phenyl)thiazole-4-carboxamide], the IC50 amounted to 3.2 nM in test [1], 83.8 nM in test [2] and 8.3 nM in test [3].

In the case of `CC(C)Oc1ccc(F)c(-c2nc(C(=O)Nc3cnccc3[C@@H]3C[C@H](C)C[C@H](N)C3)cs2)c1F` [Example 53], the 50% inhibitory concentration (IC50) is 1 nM in test [1], 20 nM in test [2] and 3 nM in test [3].

The IC50 is the point on the concentration scale where inhibition reaches its midpoint. Lower therefore signals higher potency. Broadly, the EC50 is the concentration giving half of the maximal effect.
